Biological target: T1, voltage-gated sodium channel of interest (NaV1.7) (Homo sapiens, UniProt Q15858)
T1 construct: Gene(s) encoding the full-length protein of the voltage-gated sodium channel of interest are cloned and expressed; expressed in transfected cells
Assay: Whole-cell voltage clamp electrophysiology assay (automated patch-clamp)
Assay type: cell-based
Conditions: cells stably expressing the voltage-gated sodium channel
Text: Gene(s) encoding the full-length protein of the voltage-gated sodium channel of interest are cloned and expressed under a suitable promoter in a suitable cell line, as well known in the art. The so constructed stable cell lines are used in screening assays to identify suitable compounds active on voltage-gated sodium channels. Suitable screening assays are as follows.
Electrophysiological recordings of sodium currents in cells stably expressing the voltage-gated sodium channel of interest confirms activity and provides a functional measure of the potency of compounds that specifically affect such channels.
Electrophysiological studies was performed using automated patch-clamp electrophysiology platforms, like IonWorks HT, IonWorks Quattro, PatchXpress, or any other suitable platform. The cell line expressing the voltage-gated sodium channel of interest was plated in appropriate well tissue plates, as provided by the manufacturer of the automated patch-clamp platforms. Suitable extracellular and intracellular buffer for such experiments was applied according to the instructions given by the manufacturer of the automated patch-clamp platforms. Cells that express the voltage-gated sodium channel protein of interest was exposed to drugs through the pipetting system integrated in the platforms. A suitable voltage stimulus protocol was used to activate the voltage-gated sodium channel proteins of interest. A suitable stimulus protocol consisted of eight voltage pulses, each to −20 mV and 50 ms in length, and separated from each other by 330 ms intervals at a potential of −90 mV, or −65 mV.
Electrophysiological studies can also be performed using the whole cell configuration of the standard patch clamp technique as described in the literature (26). In this assay, cells that express the human voltage-gated sodium channel protein of interest are exposed to the drugs by conventional microperfusion systems and a suitable voltage stimulus protocol is used to activate the voltage-gated sodium channels.

T1 sequence (Q15858 whole entry): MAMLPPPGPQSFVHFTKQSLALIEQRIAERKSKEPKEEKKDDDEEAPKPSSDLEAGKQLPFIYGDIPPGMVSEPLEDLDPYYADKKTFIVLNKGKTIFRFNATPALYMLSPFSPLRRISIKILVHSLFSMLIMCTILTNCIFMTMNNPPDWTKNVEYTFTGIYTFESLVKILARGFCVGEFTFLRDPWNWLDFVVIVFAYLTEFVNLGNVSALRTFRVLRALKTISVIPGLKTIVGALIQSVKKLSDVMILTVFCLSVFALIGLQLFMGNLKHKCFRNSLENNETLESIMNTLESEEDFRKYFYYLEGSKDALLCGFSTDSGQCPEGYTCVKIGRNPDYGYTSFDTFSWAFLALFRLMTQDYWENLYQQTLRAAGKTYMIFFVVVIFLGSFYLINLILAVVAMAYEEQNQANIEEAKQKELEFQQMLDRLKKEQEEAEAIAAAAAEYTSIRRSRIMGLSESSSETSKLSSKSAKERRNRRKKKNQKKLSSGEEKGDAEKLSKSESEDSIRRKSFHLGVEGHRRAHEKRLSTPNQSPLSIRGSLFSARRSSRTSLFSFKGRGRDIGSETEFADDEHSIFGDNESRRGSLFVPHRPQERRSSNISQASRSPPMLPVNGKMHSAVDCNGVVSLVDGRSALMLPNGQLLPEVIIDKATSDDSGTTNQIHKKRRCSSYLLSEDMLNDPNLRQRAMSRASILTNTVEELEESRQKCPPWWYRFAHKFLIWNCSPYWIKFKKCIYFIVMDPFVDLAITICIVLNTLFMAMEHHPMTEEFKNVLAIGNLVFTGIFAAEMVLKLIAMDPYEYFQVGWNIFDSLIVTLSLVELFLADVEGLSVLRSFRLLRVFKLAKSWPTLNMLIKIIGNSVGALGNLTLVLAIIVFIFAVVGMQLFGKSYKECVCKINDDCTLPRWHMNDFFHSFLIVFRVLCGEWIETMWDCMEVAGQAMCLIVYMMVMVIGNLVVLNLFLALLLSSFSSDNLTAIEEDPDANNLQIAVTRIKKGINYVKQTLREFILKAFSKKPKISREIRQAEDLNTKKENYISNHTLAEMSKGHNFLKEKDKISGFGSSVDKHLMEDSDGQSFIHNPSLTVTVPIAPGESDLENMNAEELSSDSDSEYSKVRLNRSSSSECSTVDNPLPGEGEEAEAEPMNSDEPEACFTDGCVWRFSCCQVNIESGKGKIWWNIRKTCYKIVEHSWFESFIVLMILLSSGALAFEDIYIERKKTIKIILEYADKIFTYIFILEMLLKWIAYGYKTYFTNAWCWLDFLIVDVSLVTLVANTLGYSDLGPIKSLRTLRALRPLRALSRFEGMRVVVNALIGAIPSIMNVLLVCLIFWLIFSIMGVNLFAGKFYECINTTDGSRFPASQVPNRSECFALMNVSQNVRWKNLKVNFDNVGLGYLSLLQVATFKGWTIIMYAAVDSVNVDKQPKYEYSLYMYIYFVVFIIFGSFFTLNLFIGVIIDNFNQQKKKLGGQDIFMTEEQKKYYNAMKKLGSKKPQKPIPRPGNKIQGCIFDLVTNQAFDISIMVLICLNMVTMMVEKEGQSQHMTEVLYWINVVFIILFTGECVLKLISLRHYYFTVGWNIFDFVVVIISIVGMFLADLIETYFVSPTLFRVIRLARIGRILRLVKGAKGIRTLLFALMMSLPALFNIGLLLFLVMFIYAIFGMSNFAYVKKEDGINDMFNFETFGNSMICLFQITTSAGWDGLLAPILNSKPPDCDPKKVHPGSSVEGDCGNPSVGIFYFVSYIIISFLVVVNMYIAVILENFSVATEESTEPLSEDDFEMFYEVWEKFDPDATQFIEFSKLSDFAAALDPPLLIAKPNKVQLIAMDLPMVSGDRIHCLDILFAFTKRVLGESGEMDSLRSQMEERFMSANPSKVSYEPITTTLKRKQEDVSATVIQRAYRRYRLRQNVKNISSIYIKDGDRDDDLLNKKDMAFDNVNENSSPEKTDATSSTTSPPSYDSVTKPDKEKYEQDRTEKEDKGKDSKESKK

Row | SMILES | IC50 [nM]
1 | COc1ccccc1CN1C(=O)c2ccccc2C1C(=O)Nc1c(C)cccc1Cl (stereo not shown) [Example 2, N-(2-chloro-6-methylphenyl)-2-(2-methoxybenzyl)-3-oxoisoindoline-1-carboxamide] | 316
2 | Cc1cccc(C)c1NC(=O)C1c2ccccc2C(=O)N1CCOc1cc(C(F)(F)F)ccc1F (stereo not shown) [Example 15, N-(2,6-dimethylphenyl)-2-{2-[2-fluoro-5-(trifluoromethyl)phenoxy]ethyl}-3-oxoisoindoline-1-carboxamide] | 200
3 | COc1ccccc1CN1C(=O)c2ccccc2C1C(=O)Nc1c(Cl)cccc1Cl (stereo not shown) [Example 16, N-(2,6-dichlorophenyl)-2-(2-methoxybenzyl)-3-oxoisoindoline-1-carboxamide] | 251
4 | COc1cc(F)ccc1CN1C(=O)c2ccccc2C1C(=O)Nc1c(C)cccc1C (stereo not shown) [Example 38, N-(2,6-dimethylphenyl)-2-(4-fluoro-2-methoxybenzyl)-3-oxoisoindoline-1-carboxamide] | 100
